Measured values as given in US11904021B2, “Dual targeting and therapeutic nanoparticle for treating renal fibrosis” (The Chinese University of Hong Kong, priority 2020, dated 2024).
Where “and” joins values, the source holds several entries; their conditions need not be identical. Equal values may be shown once. Entries after “also recorded” stand apart in the source; their conditions may differ.

Legend:
[1] = tested on: α-smooth muscle actin (a-SMA); test: Anti-fibrosis efficacy: IHC of α-SMA in UUO kidney; type: in vivo, Balb/c mice; conditions: Day 14 post-UUO surgery
Method: (§1) Mouse kidney tissue—Two slides from each kidney were selected for each set of stains such that two section-containing slides were at least 200 μm away from each other. IHC staining was performed on paraffin sections using the microwave-based antigen retrieval technique^32. Tissue sections were deparaffinized and rehydrated to water. After placing the slides in citrate buffer (10 mM citric acid, pH 6.0), the slides were heated in the microwave oven for 3 min under high power (˜95-100° C.) and for 20 more min under low power. After cooling the slides in the heated solution for 30 min, they were rinsed in distilled water twice and in PBS for 5 min. Next, the slides were blocked with 2.5% normal horse serum (Vector Laboratories) for 2 h and incubated with 60 μL of primary antibodies [1 μg/mL for type I collagen (1310-01; Southern BioTech), 0.048 μg/mL for α-SMA (ab150301; Abcam)) 0.625 μg/mL for folate receptor (ab67422; Abcam), 1.25 μg/mL for CD3 (ab16669; Abcam), 1.25 μg/mL for Wnt5b (ab93134; Abcam), and pre-diluted β-catenin (ab15180; Abcam)] at 4° C. overnight. […]
(§2) The major measurable outcome was the expression level of collagen I, as quantified by the percentage area of IHC staining in the kidney sections. […]

[2] = tested on: UUO mice; test: In vivo toxicity test (organ histology, blood biochemistry, hematology); design: species or system Balb/c mice; conditions: 7 days post-injection, efficacy dose
Method: Liver, heart, and spleen samples were fixed in 10% buffered formalin for 48 h and then stored in PBS at 4° C. Paraffin-embedded tissue sections of 4 μm thick were stained with hematoxylin and eosin for the tissue morphology by light microscopy. Blood, collected via an intracardiac puncture, was stored in a plain tube for biochemistry tests and in EDTA-coated tubes (Becton Dickinson) for hematology analysis. The blood samples were kept on ice and later sent to PathLab (Hong Kong) for analysis on the same day.

[3] = tested on: type I collagen; test: Anti-fibrosis efficacy: IHC of type I collagen in UUO kidney; type: in vivo, Balb/c mice; conditions: for fractional area of type I collagen in UUO kidney: Day 14 post-UUO surgery (7 days post injection)
Method: Mouse kidney tissue—Two slides from each kidney were selected for each set of stains such that two section-containing slides were at least 200 μm away from each other. IHC staining was performed on paraffin sections using the microwave-based antigen retrieval technique^32. Tissue sections were deparaffinized and rehydrated to water. After placing the slides in citrate buffer (10 mM citric acid, pH 6.0), the slides were heated in the microwave oven for 3 min under high power (˜95-100° C.) and for 20 more min under low power. After cooling the slides in the heated solution for 30 min, they were rinsed in distilled water twice and in PBS for 5 min. Next, the slides were blocked with 2.5% normal horse serum (Vector Laboratories) for 2 h and incubated with 60 μL of primary antibodies [1 μg/mL for type I collagen (1310-01; Southern BioTech), 0.048 μg/mL for α-SMA (ab150301; Abcam)) 0.625 μg/mL for folate receptor (ab67422; Abcam), 1.25 μg/mL for CD3 (ab16669; Abcam), 1.25 μg/mL for Wnt5b (ab93134; Abcam), and pre-diluted β-catenin (ab15180; Abcam)] at 4° C. overnight. Slides were then washed in PBS and treated with 3% H2O2 (Merck Millipore) for 30 min, rinsed again, and incubated with ˜50 μL of secondary antibodies (ImmPRESS HRP Polymer detection Kit, Vector Laboratories) for 30 min. The sections were developed sequentially by using 3,3′-diaminobenzidine (DAB) enzyme substrate (ImmPACT™ DAB, Vector Laboratories) for 2 min. All slides were counter-stained with Mayer's hematoxylin for 3 min, washed in distilled water, dried in 90% ethanol, and mounted by using xylene-based mounting medium. Bright-field images were acquired using the Nikon Eclipse Ni (DS-Ri2) microscope.
FA was dissolved in sterile BioPerformance Certified DMSO (Sigma) and formulated in D5W prior to injection. The final concentration of DMSO was less than 1%. […]
as §2

[4] = tested on: CD3+ T cells; test: Anti-fibrosis efficacy: IHC of CD3+ T cell infiltration in UUO kidney; type: in vivo, Balb/c mice; conditions: Day 14 post-UUO surgery
Method: as §1, §2

[5] = tested on: UUO mice with established renal fibrosis; test: Efficacy study in UUO mice: kidney degeneration (gross appearance, histology, kidney weight, blood creatinine); type: in vivo, Balb/c mice; conditions: treatment from Day 7, sacrifice Day 14 post-UUO surgery
Method: Mouse model of renal fibrosis was induced by the UUO surgery as previously described^12,29. Mice were anesthetized by an intraperitoneal injection of ketamine (100 mg/kg; Alfasan International B.V.) and xylazine (10 mg/kg; Alfasan International B.V.). The peritoneum was cut along the midline, and the left ureter was isolated and ligated twice by using a 5-0 suture (NingBo Cheng-He Microsurgical Instruments). The bowel was laid back and the peritoneum was closed with suture. The mice were placed under a heating lamp to maintain body temperature until they recovered from anesthesia. For analgesia, three injections of buprenorphine (Temgesic, 0.05 mg/kg) were given to the mice subcutaneously every 12 h after the surgery. To verify the development of fibrosis, the mice were sacrificed by cervical dislocation with anesthesia, and their kidneys were weighted (see FIG. 4) and processed for histological analysis (see FIGS. 5A-5C).
FA was dissolved in sterile BioPerformance Certified DMSO (Sigma) and formulated in D5W prior to injection. The final concentration of DMSO was less than 1%. Au3-PEG500-FA NPs formulated in D5W was injected i.v. at a dose of 0.12 mg-FA/kg-mouse (or equivalently 2.5 mg-Au/kg-mouse). […]
as §2

[6] = tested on: type I collagen (gene ID: Col1a1); test: Transcriptomic analysis (RNA-seq) of UUO kidneys; type: in vivo, Balb/c mice; conditions: UUO kidney, 48 h post-injection, individual replicates 1-3
Method: UUO mice were i.v. injected with Au3-PEG500-FA NPs (i.e., […]) or free (i.e., 0.12 mg-FA/kg-mouse) on Day 7 after UUO surgery, at the same dosage used for the efficacy studies. An untreated group of UUO mice was also included as control. On Day 9 after UUO surgery (i.e., 48 h post-injection), the mice were sacrificed and the UUO kidneys were harvested. After cutting the UUO kidneys in half using a scalpel, one set of the halved kidneys was fixed in buffered formalin while the other set was snap frozen in liquid nitrogen and stored at −80° C. The formalin-fixed samples were dehydrated as mentioned above and embedded in paraffin blocks to generate tissue sections for validating the RNA-seq data. The frozen samples were sent to Beijing Genomics Institute (BGI) for RNA extraction, RNA library construction, and bioinformatic analysis. A total of 9 samples were sequenced using the BGISEQ platform, with ˜4.57 Gb generated per sample. The average mapping ratio with reference genome is 94.33%. Differential expressed genes (DEGs) detection, gene ontology analysis of DEG, and other analysis based on gene expression were performed by BGI. Further analysis of the DEGs was performed by filtering the list of DEGs with a FPKM threshold of 2 for at least 6 out of the 9 UUO samples tested.
Animals were sacrificed on Day 9. […]

[7] = neutral conditions, literature ref 45; cited from earlier work

Compound	area with positive α-SMA in the UUO kidney [1]	histological examination of liver, heart, and spleen [2]	fractional area of type I collagen in UUO kidney [3]	mean population of CD3+ T cells [4]	gross tissue degeneration of UUO kidney [5]	Expression level (FPKM) for type I collagen [6]	type I collagen protein expression in UUO kidney versus saline group ([3]; 48 h post-injection (Day 9))	solubility in water [7]
C[C@H](CS)C(=O)N1CCC[C@H]1C(=O)O [Captopril]	12.5%	did not observe noticeable toxicity	13.5%	–	–	–	–	–
Nc1nc2ncc(CNc3ccc(C(=O)N[C@@H](CCC(=O)O)C(=O)O)cc3)nc2c(=O)[nH]1 [free FA, folic acid]	10.7%	did not observe noticeable toxicity	11.2%	13 cells/frame	rescued the UUO kidney from tissue degeneration; also recorded: did not degenerate	185.4 FPKM and 80.71 FPKM and 18.57 FPKM	lower type I collagen protein expression than the saline group	poorly soluble in water
